Laboratory results from EP1267826B1, “PHARMACEUTICAL COMPOSITION FOR TREATMENT OF MUCOSAL EPITHELIAL ULCERATION AND/OR EROSION” (LIF-HLAUP EHF. BIO-GELS PHARMACEUTICALS INC., priority 1999, dated 2001).
Several values for one entry are separate records, joined by “and”; a condition that tells them apart may be missing. Equal entries are not always repeated.

Experiments:
MMP-2 = biological target: T1, MMP-2 (Homo sapiens, UniProt P08253); assay: Zymography, inhibition of gelatinolytic activity; assay type: biochemical; settings: MMP-2 acquired from HT-1080; result determined visually; read-out: concentration at which complete inhibition was achieved
T1 construct: known to secrete a large amount of several matrix-degrading enzymes, among which are MMP-2 and MMP-9; endogenous in cells; host or cells: HT-1080 human fibrosarcoma cells (secreted enzyme)
T1 sequence (P08253 110-660): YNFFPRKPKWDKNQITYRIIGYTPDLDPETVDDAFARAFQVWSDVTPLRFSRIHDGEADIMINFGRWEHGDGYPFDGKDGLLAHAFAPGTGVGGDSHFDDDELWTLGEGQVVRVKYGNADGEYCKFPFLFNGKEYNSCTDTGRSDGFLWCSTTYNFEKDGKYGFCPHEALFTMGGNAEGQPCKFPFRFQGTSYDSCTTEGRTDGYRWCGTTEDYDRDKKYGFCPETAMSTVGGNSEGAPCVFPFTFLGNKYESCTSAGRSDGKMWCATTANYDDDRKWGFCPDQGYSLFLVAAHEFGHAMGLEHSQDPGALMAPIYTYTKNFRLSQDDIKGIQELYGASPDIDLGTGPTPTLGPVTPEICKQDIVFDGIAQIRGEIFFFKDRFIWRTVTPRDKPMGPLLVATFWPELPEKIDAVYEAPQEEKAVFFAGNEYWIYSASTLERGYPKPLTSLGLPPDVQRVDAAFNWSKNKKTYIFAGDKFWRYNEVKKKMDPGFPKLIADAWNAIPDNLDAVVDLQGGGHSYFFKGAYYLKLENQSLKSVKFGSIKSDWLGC
Excerpt: (§1) In checking the inhibition of the doxycycline on MMP's a Zymography method was used (Mackay et al., Cancer Res., 50(18), 5997-6001, 1990).
(§2) Cell culture: HT-1080 is human fibrosarcoma cell line which is known to secrete a large amount of several matrix-degrading enzymes, among which are MMP-2 and MMP-9 (Kawamata et al., International Journal of Oncology, 13, 699-704, 1998).

MMP-9 = biological target: T2, MMP-9 (Homo sapiens, UniProt P14780); assay: Zymography, inhibition of gelatinolytic activity; assay type: biochemical; settings: MMP-9 acquired from HT-1080; result determined visually; read-out: concentration at which complete inhibition was achieved
T2 construct: known to secrete a large amount of several matrix-degrading enzymes, among which are MMP-2 and MMP-9; endogenous in cells; host or cells: HT-1080 human fibrosarcoma cells (secreted enzyme)
T2 sequence (P14780 94-707): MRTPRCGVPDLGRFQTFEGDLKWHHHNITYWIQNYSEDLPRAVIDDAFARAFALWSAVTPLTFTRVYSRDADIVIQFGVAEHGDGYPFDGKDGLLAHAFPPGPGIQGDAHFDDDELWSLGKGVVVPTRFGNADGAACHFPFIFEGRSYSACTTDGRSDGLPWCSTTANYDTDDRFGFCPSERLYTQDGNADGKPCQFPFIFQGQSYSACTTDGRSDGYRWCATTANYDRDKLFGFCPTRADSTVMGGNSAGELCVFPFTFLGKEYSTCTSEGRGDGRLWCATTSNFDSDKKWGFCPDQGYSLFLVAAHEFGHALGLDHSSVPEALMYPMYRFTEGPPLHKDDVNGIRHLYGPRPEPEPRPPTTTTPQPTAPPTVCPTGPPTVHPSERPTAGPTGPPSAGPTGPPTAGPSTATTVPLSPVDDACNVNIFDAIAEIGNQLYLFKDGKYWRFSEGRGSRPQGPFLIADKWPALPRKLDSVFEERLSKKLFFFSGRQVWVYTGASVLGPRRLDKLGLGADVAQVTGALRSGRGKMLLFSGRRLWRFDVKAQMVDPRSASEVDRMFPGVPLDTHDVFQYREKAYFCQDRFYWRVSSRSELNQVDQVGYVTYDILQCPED
Excerpt: as §1, §2

MMP's = settings: literature (Burns et al. 1989; Gabler et al. 1991); cited from earlier work

Row | Structure (SMILES) | IC100 (MMP-2) | IC100 (MMP-9) | inhibition of the MMP's (in words) (MMP's)
1 | C[C@H]1c2cccc(O)c2C(=O)C2=C(O)[C@]3(O)C(=O)C(C(N)=O)=C(O)[C@@H](N(C)C)[C@@H]3[C@@H](O)[C@@H]21 [doxycycline] | 100 µM and 48 µg/mL | 50 µM and 24 µg/mL | –
2 | CCN(CC)CCCCCCCCOC(=O)c1cc(OC)c(OC)c(OC)c1 [TMB-8] | – | – | have shown inhibition of MMP's
3 | O=C(O)CN(CCN(CC(=O)O)CC(=O)O)CC(=O)O [EDTA] | – | – | have shown inhibition of MMP's
